According to patent publication US11612602B2, “Heterocyclic compounds and uses as anticancer agents” (ACEA Therapeutics, Inc., priority 2012, dated 2023):

Legend:
Format in all cases: cell-based
[1] = molecular target: T1, EGFR (T790M/L858R), H1975 cell (Homo sapiens, UniProt P00533, L858R/T790M); test: ELISA assay of EGFR phosphorylation in H1975 cells; settings: for IC50: EGFR pY1068 sandwich ELISA, 2 hours compound in serum-free medium; for Selectivity (WT/T790M): ratio of IC50 A431 cell (WT) to IC50 H1975 cell (T790M/L858R)
T1 construct: endogenous in cells; host or cells: H1975
T1 sequence (P00533 25-1210 T790M/L858R): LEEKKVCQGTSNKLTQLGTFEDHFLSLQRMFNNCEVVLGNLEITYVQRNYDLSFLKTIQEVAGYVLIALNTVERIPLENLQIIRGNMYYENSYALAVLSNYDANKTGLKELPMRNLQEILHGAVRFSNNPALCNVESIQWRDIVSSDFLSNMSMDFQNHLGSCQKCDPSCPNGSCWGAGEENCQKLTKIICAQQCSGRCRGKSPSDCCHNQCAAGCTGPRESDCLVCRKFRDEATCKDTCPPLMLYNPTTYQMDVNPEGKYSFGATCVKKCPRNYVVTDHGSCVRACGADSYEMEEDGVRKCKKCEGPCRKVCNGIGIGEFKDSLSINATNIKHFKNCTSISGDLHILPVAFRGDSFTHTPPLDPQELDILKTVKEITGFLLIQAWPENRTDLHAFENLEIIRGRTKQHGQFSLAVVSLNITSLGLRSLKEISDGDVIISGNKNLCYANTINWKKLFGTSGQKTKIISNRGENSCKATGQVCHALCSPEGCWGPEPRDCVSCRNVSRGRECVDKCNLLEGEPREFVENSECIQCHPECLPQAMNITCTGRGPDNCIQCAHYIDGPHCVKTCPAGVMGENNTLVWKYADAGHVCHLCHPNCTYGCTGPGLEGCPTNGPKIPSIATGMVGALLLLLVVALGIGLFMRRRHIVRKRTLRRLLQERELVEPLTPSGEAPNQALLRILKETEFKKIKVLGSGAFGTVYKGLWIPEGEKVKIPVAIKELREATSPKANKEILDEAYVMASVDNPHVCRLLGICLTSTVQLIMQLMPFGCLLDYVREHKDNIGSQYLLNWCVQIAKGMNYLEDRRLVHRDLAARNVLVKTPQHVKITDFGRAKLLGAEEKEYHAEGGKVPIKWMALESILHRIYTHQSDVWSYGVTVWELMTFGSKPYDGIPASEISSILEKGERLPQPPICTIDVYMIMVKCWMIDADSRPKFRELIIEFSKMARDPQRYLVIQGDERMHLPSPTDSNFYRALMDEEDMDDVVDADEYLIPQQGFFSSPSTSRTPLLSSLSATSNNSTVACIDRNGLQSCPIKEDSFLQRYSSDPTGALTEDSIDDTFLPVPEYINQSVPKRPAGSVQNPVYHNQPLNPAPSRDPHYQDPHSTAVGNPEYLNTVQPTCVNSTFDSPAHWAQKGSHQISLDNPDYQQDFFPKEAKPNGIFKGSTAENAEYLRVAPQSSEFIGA
Procedure: (§1) H1975 and A431 cells were seeded onto each well of a 96-well plate at a density of 4×10^4 cells per well. After 24 hours of growth in serum-containing media, cells were treated with test compound in serum-free medium for 2 hours. A431 cells were stimulated with 30 ng/mL EGF during the last 15 minutes of compound treatment. Cells were washed with ice cold PBS before extraction with 100 μl per well cell lysis buffer. Phosphorylation of EGFR was measured using a sandwich ELISA assay with the pair of phospho-specific EGFR (pY1068) and total EGFR antibodies.

EGFR (WT), A431 cell = molecular target: T2, EGFR (WT), A431 cell (Homo sapiens, UniProt P00533); test: ELISA assay of EGFR phosphorylation in A431 cells; settings: EGFR pY1068 sandwich ELISA, 2 hours compound, 30 ng/mL EGF last 15 minutes
T2 construct: endogenous in cells; host or cells: A431
T2 sequence (P00533 25-1210): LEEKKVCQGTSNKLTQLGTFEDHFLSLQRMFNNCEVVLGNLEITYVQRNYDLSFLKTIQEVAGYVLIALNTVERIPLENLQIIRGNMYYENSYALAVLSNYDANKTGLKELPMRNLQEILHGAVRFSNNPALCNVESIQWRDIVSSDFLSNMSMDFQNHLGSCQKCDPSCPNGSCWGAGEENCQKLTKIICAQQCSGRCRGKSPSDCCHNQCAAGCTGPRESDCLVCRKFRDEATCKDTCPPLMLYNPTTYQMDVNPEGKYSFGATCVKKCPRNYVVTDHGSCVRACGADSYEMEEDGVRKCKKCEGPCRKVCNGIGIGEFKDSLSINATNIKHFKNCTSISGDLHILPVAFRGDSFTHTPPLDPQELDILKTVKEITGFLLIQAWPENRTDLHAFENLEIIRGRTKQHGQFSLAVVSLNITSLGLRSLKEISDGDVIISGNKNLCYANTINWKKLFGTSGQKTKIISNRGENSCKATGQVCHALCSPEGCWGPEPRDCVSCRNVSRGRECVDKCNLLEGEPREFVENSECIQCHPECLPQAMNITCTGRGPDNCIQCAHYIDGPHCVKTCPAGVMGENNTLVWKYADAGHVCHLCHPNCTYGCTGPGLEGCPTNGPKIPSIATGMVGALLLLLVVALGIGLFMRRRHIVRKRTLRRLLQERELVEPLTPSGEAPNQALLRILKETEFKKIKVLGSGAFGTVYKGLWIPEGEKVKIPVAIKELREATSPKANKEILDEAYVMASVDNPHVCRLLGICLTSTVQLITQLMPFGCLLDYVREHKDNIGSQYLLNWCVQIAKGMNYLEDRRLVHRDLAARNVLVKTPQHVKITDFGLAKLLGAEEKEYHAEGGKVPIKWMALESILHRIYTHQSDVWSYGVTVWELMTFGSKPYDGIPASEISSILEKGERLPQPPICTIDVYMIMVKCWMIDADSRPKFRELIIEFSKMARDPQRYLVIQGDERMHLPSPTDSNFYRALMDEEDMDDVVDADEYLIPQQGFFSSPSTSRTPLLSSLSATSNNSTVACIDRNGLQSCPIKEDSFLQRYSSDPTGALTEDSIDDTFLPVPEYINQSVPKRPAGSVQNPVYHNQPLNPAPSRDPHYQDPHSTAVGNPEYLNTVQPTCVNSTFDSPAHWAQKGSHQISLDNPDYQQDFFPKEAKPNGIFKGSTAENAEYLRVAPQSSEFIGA
Procedure: as §1

A549 cells = test: A549 cell viability assay (cytotoxicity, xCelligence RTCA); settings: Homo sapiens, 72 h, 3 days
Procedure: (§2) All cell lines were obtained from the American Type Culture Collection and were maintained at 37° C. with 5% CO2, in media supplemented with 10% fetal bovine serum and 1% L-glutamine-penicillin-streptomycin. H1975, HCC827 and A549 cells were cultured with RPMI 1640 media. A431 and Hela cells were maintained in Dulbecco's Modification of Eagle's Medium. EGF (R&D), EGF inhibitors were resuspended and stored according to the manufacturers' instructions.
(§3) Cells were seeded in 96-well E-Plate devices, and attachment, spreading, and proliferation were monitored using the xCelligence RTCA system. After 20 h of RTCA profiling, the cells were treated with the indicated compounds prediluted in growth media to a final maximal DMSO concentration of 0.1%, and the responses were measured at 30-min intervals for 3 days. For each cell type the optimal cell concentration was chosen based on their respective proliferation pattern.

HeLa cells = test: HeLa cell viability assay (cytotoxicity, xCelligence RTCA); settings: Homo sapiens, 72 h, 3 days
Procedure: as §2, §3

EGFR in H1975 cells = test: H1975 EGF stimulation assay (impedance, xCelligence RTCA); settings: Homo sapiens, NCI-H1975, 40 min pretreatment, EGF 30 ng/mL
Procedure: as §2
(§4) Impedance measurements were taken using the xCelligence RTCA system (Roche Applied Science) instrument using the E-plates 96-well device from the same company. Cells were trypsinized and seeded on a 96-well E-plate at a density of 15000 cells per well in a volume of 0.1 ml. Cells were allowed to attach and proliferate overnight. Prior to compound treatment, H1975 cells were serum starved in RPMI-1640 for a total of 4 h. Following serum starvation, the cells were pretreated with compounds or vehicle for 40 min and then stimulated with EGF at 30 ng/mL. Throughout the experimental process, the cells were continually monitored, and the changes in impedance were acquired with the xCelligence RTCA system. After EGF treatment, data acquisition was done every minute for up to 2 h. For each cell type the optimal cell concentration was chosen based on their respective proliferation pattern.

EGFR in A431 cells = test: A431 EGF stimulation assay (impedance, xCelligence RTCA); settings: Homo sapiens, A-431
Procedure: as §2, with “H1975, HCC827 and A549 cells were cultured with RPMI 1640 media.” left out
as §4, with “Prior to compound treatment, H1975 cells were serum starved in RPMI-1640 for a total of 4 h.” left out

H1975 cells = test: H1975 cell viability assay (cytotoxicity, xCelligence RTCA); settings: 3 days
Procedure: as §2, §3

Compound: C=CC(=O)Nc1cccc(C(F)(F)c2nc(Nc3ccc(N4CCN(C)CC4)nc3)nc3[nH]ccc23)c1 [Compound 28b, N-(3-(difluoro(2-(6-(4-methylpiperazin-1-yl)pyridin-3-ylamino)-7H-pyrrolo[2,3-d]pyrimidin-4-yl)methyl)phenyl)acrylamide]
- IC50 [1]: 0.026 µM
- Selectivity (WT/T790M) [1]: 466
- IC50 (EGFR (WT), A431 cell): 12 µM

Compound: C=CC(=O)Nc1cccc(C(F)(F)c2nc(Nc3ccc(N4CCN(C)CC4)cc3OC)ncc2F)c1 [Compound 32]
- IC50 [1]: 1.3 µM
- Selectivity (WT/T790M) [1]: >15.4
- IC50 (EGFR (WT), A431 cell): > 20 µM

Compound: C=CC(=O)Nc1cccc(C(F)(F)c2nc(Nc3ccc(N4CCN(C)CC4)cc3OC)nc3[nH]cnc23)c1 [Compound 13b, N-(3-(difluoro(2-(2-methoxy-4-(4-methylpiperazin-1-yl)phenylamino)-9H-purin-6-yl)methyl)phenyl)acrylamide]
- IC50 (A549 cells): > 20 µM
- IC50 (HeLa cells): > 20 µM
- IC50 (EGFR in H1975 cells): 1.9 µM
- IC50 (EGFR in A431 cells): 4.1 µM
- IC50 [1]: 0.34 µM
- Selectivity (WT/T790M) [1]: 32
- IC50 (EGFR (WT), A431 cell): 10.8 µM

Compound: C=CC(=O)Nc1cccc(Oc2nc(Nc3ccc(N4CCN(C)CC4)cc3OC)ncc2Cl)c1 [WZ4002, reference compound]
- H1975 cell viability assay (under head IC50 (uM), results in words) (H1975 cells): Active
- IC50 (A549 cells): > 20 µM
- IC50 (HeLa cells): > 6.7 µM
- IC50 (EGFR in H1975 cells): 1.1 µM
- IC50 (EGFR in A431 cells): 0.817 µM

Compound: C=CC(=O)Nc1cccc(C(F)(F)c2nc(Nc3ccc(N4CCN(C)CC4)cc3)nc3[nH]cnc23)c1 [Compound 13a, N-(3-(difluoro(2-(4-(4-methylpiperazin-1-yl)phenylamino)-9H-purin-6-yl)methyl)phenyl)acrylamide]
- H1975 cell viability assay (under head IC50 (uM), results in words) (H1975 cells): Active
- IC50 (A549 cells): > 20 µM
- IC50 (HeLa cells): > 2.2 µM
- IC50 (EGFR in H1975 cells): 1.7 µM
- IC50 (EGFR in A431 cells): 2.4 µM
- IC50 [1]: 0.17 µM
- Selectivity (WT/T790M) [1]: 82
- IC50 (EGFR (WT), A431 cell): 13.7 µM

Compound: C=CC(=O)Nc1cccc(C(F)(F)c2nc(Nc3ccc(N4CCN(C)CC4)cc3)ncc2F)c1 [Compound 19, N-(3-(difluoro(5-fluoro-2-(4-(4-methylpiperazin-1-yl)phenylamino)pyrimidin-4-yl)methyl)phenyl)acrylamide]
- H1975 cell viability assay (under head IC50 (uM), results in words) (H1975 cells): Active
- IC50 (A549 cells): > 6.7 µM
- IC50 (HeLa cells): > 6.7 µM
- IC50 (EGFR in H1975 cells): 1.1 µM
- IC50 (EGFR in A431 cells): 0.97 µM
- IC50 [1]: 0.029 µM
- Selectivity (WT/T790M) [1]: 85
- IC50 (EGFR (WT), A431 cell): 2.46 µM

Compound: C=CC(=O)Nc1cccc(C(F)(F)c2nc(Nc3ccc(N4CCN(C)CC4)cc3OC)ncc2OC)c1 [Compound 63]
- IC50 [1]: 0.03 µM
- Selectivity (WT/T790M) [1]: 974
- IC50 (EGFR (WT), A431 cell): 28.8 µM

Compound: C=CC(=O)Nc1cccc(C(F)(F)c2nc(Nc3ccc(N4CCN(C)CC4)cc3)nc3c2ccn3CO)c1 [Compound 27a, N-(3-(difluoro(7-(hydroxymethyl)-2-(4-(4-methylpiperazin-1-yl)phenylamino)-7H-pyrrolo[2,3-d]pyrimidin-4-yl)methyl)phenyl)acrylamide]
- IC50 [1]: 0.058 µM
- Selectivity (WT/T790M) [1]: 403
- IC50 (EGFR (WT), A431 cell): 23.4 µM

Compound: C=CC(=O)Nc1cccc(C(F)(F)c2nc(Nc3ccc(N4CCN(C)CC4)nc3)ncc2OC)c1 [Compound 31]
- IC50 [1]: 0.03 µM
- Selectivity (WT/T790M) [1]: >657
- IC50 (EGFR (WT), A431 cell): > 20 µM

Compound: C=CC(=O)Nc1cccc(C(F)(F)c2nc(Nc3ccc(N4CCN(C)CC4)cc3)ncc2OC)c1 [Compound 35]
- IC50 [1]: 0.062 µM
- Selectivity (WT/T790M) [1]: 58.4
- IC50 (EGFR (WT), A431 cell): 3.61 µM

Compound: C=CC(=O)Nc1cccc(C(F)(F)c2nc(Nc3ccc(N4CCN(C)CC4)c(F)c3)ncc2OC)c1 [Compound 34]
- IC50 [1]: 0.038 µM
- Selectivity (WT/T790M) [1]: 113
- IC50 (EGFR (WT), A431 cell): 4.37 µM

Compound: C=CC(=O)Nc1cccc(C(F)(F)c2nc(Nc3ccc(N4CCN(C)CC4)cc3OC)nc3[nH]ccc23)c1 [Compound 28d, N-(3-(difluoro(2-(2-methoxy-4-(4-methylpiperazin-1-yl)phenylamino)-7H-pyrrolo[2,3-d]pyrimidin-4-yl)methyl)phenyl)acrylamide]
- IC50 [1]: 0.158 µM
- Selectivity (WT/T790M) [1]: >127
- IC50 (EGFR (WT), A431 cell): > 20 µM

Compound: C=CC(=O)Nc1cccc(C(F)(F)c2nc(Nc3ccc(N4CCN(C)CC4)cc3)ncc2Cl)c1 [Compound 38]
- IC50 [1]: 0.341 µM
- Selectivity (WT/T790M) [1]: 11.2
- IC50 (EGFR (WT), A431 cell): 3.81 µM

Compound: C=CC(=O)Nc1cccc(C(F)(F)c2nc(Nc3ccc(N4CCN(C)CC4)cc3)nc3[nH]ccc23)c1 [Compound 28a, N-(3-(difluoro(2-(4-(4-methylpiperazin-1-yl)phenylamino)-7H-pyrrolo[2,3-d]pyrimidin-4-yl)methyl)phenyl)acrylamide]
- IC50 [1]: 0.026 µM
- Selectivity (WT/T790M) [1]: 107
- IC50 (EGFR (WT), A431 cell): 2.73 µM

Compound: C=CC(=O)Nc1cccc(C(F)(F)c2nc(Nc3ccc(N4CCN(C)CC4)c(F)c3)ncc2F)c1 [Compound 36]
- IC50 [1]: 0.093 µM
- Selectivity (WT/T790M) [1]: 23.3
- IC50 (EGFR (WT), A431 cell): 2.17 µM

Compound: C=CC(=O)Nc1cccc(C(F)(F)c2nc(Nc3ccc(N4CCN(C)CC4)c(F)c3)nc3[nH]ccc23)c1 [Compound 28c, N-(3-(difluoro(2-(3-fluoro-4-(4-methylpiperazin-1-yl)phenylamino)-7H-pyrrolo[2,3-d]pyrimidin-4-yl)methyl)phenyl)acrylamide]
- IC50 [1]: 0.08 µM
- Selectivity (WT/T790M) [1]: 100
- IC50 (EGFR (WT), A431 cell): 8.05 µM

Compound: C/C=C/C(=O)Nc1cccc(C(F)(F)c2nc(Nc3ccc(N4CCN(CC)CC4)cc3)ncc2F)c1 [Compound 42]
- IC50 [1]: 1.63 µM
- Selectivity (WT/T790M) [1]: 7.2
- IC50 (EGFR (WT), A431 cell): 11.8 µM

Compound: C=CC(=O)Nc1cccc(C(F)(F)c2nc(Nc3ccc(N4CCN(C)CC4)cc3)ncc2C)c1 [Compound 37]
- IC50 [1]: 0.106 µM
- Selectivity (WT/T790M) [1]: 105
- IC50 (EGFR (WT), A431 cell): 11.1 µM

Compound: C/C=C/C(=O)Nc1cccc(C(F)(F)c2nc(Nc3ccc(N4CCN(C)CC4)cc3)ncc2F)c1 [Compound 40]
- IC50 [1]: 1.74 µM
- Selectivity (WT/T790M) [1]: 14.6
- IC50 (EGFR (WT), A431 cell): 25.3 µM

Compound: C=CC(=O)Nc1cccc(C(F)(F)c2nc(Nc3ccc(N4CCN(CC)CC4)cc3)ncc2F)c1 [Compound 39]
- IC50 [1]: 0.041 µM
- Selectivity (WT/T790M) [1]: 17.3
- IC50 (EGFR (WT), A431 cell): 0.71 µM

Compound: C=CC(=O)Nc1cccc(C(F)(F)c2nc(Nc3ccc(N4CCN(C)CC4)nc3)ncc2F)c1 [Compound 33]
- IC50 [1]: 0.099 µM
- Selectivity (WT/T790M) [1]: 72.6
- IC50 (EGFR (WT), A431 cell): 7.17 µM
